# Data from PubChem BioAssay (NCI).
#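 Values below derive from 48-hour exposures of cells grown in 96-well plates, with endpoints linearly interpolated between the two concentrations bracketing the appropriate inhibition level. TGI: concentration producing complete growth inhibition.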
# Experiments:
# Experiment in all cases: growth of human tumour cells (NCI), 48 h
# 786-0 renal = system: 786-0 renal
# A498 renal = system: A498 renal
# A549 NSCLC = system: A549 NSCLC
# ACHN renal = system: ACHN renal
# BT-549 breast = system: BT-549 breast
# CAKI-1 renal = system: CAKI-1 renal
# CCRF-CEM leukemia = system: CCRF-CEM leukemia
# COLO 205 colon = system: COLO 205 colon
# DU-145 prostate = system: DU-145 prostate
# EKVX NSCLC = system: EKVX NSCLC
# HCT-116 colon = system: HCT-116 colon
# HCT-15 colon = system: HCT-15 colon
# HL-60(TB) leukemia = system: HL-60(TB) leukemia
# HOP-92 NSCLC = system: HOP-92 NSCLC
# HS 578T breast = system: HS 578T breast
# HT29 colon = system: HT29 colon
# IGROV1 ovarian = system: IGROV1 ovarian
# K-562 leukemia = system: K-562 leukemia
# KM12 colon = system: KM12 colon
# M14 melanoma = system: M14 melanoma
# MALME-3M melanoma = system: MALME-3M melanoma
# MDA-MB-231 breast = system: MDA-MB-231 breast
# MDA-MB-435 = system: MDA-MB-435
# MDA-N = system: MDA-N
# MOLT-4 leukemia = system: MOLT-4 leukemia
# NCI-H226 lung = system: NCI-H226 lung
# NCI-H23 lung = system: NCI-H23 lung
# NCI-H460 lung = system: NCI-H460 lung
# NCI-H522 lung = system: NCI-H522 lung
# NCI/ADR-RES ovarian = system: NCI/ADR-RES ovarian
# OVCAR-4 ovarian = system: OVCAR-4 ovarian
# OVCAR-5 ovarian = system: OVCAR-5 ovarian
# OVCAR-8 ovarian = system: OVCAR-8 ovarian
# PC-3 prostate = system: PC-3 prostate
# RPMI-8226 leukemia = system: RPMI-8226 leukemia
# RXF 393 renal = system: RXF 393 renal
# SF-268 CNS = system: SF-268 CNS
# SF-295 CNS = system: SF-295 CNS
# SF-539 CNS = system: SF-539 CNS
# SK-MEL-2 melanoma = system: SK-MEL-2 melanoma
# SK-MEL-28 melanoma = system: SK-MEL-28 melanoma
# SK-MEL-5 melanoma = system: SK-MEL-5 melanoma
# SK-OV-3 ovarian = system: SK-OV-3 ovarian
# SN12C renal = system: SN12C renal
# SNB-19 CNS = system: SNB-19 CNS
# SNB-75 CNS = system: SNB-75 CNS
# SR leukemia = system: SR leukemia
# SW-620 colon = system: SW-620 colon
# T-47D breast = system: T-47D breast
# TK-10 renal = system: TK-10 renal
# U251 CNS = system: U251 CNS
# UACC-257 melanoma = system: UACC-257 melanoma
# UACC-62 melanoma = system: UACC-62 melanoma
# UO-31 renal = system: UO-31 renal
# HCC-2998 colon = system: HCC-2998 colon
# HOP-62 NSCLC = system: HOP-62 NSCLC
# LOX IMVI melanoma = system: LOX IMVI melanoma
# MCF7 breast = system: MCF7 breast
# OVCAR-3 ovarian = system: OVCAR-3 ovarian
compound,measurement,setting,value
Clc1nc(Nc2nc3ccccc3[nH]2)nc(Cl)c1Cc1ccccc1,TGI,786-0 renal,> 100 µM
same,TGI,A498 renal,> 100 µM
same,TGI,A549 NSCLC,> 100 µM
same,TGI,ACHN renal,> 100 µM
same,TGI,BT-549 breast,> 100 µM
same,TGI,CAKI-1 renal,> 100 µM
same,TGI,CCRF-CEM leukemia,> 100 µM
same,TGI,COLO 205 colon,> 100 µM
same,TGI,DU-145 prostate,> 100 µM
same,TGI,EKVX NSCLC,> 100 µM
same,TGI,HCT-116 colon,> 100 µM
same,TGI,HCT-15 colon,> 100 µM
same,TGI,HL-60(TB) leukemia,> 100 µM
same,TGI,HOP-92 NSCLC,70.9 µM
same,TGI,HS 578T breast,> 100 µM
same,TGI,HT29 colon,> 100 µM
same,TGI,IGROV1 ovarian,> 100 µM
same,TGI,K-562 leukemia,> 100 µM
same,TGI,KM12 colon,> 100 µM
same,TGI,M14 melanoma,> 100 µM
same,TGI,MALME-3M melanoma,> 100 µM
same,TGI,MDA-MB-231 breast,> 100 µM
same,TGI,MDA-MB-435,> 100 µM
same,TGI,MDA-N,> 100 µM
same,TGI,MOLT-4 leukemia,> 100 µM
same,TGI,NCI-H226 lung,> 100 µM
same,TGI,NCI-H23 lung,> 100 µM
same,TGI,NCI-H460 lung,> 100 µM
same,TGI,NCI-H522 lung,> 100 µM
same,TGI,NCI/ADR-RES ovarian,> 100 µM
same,TGI,OVCAR-4 ovarian,> 100 µM
same,TGI,OVCAR-5 ovarian,> 100 µM
same,TGI,OVCAR-8 ovarian,> 100 µM
same,TGI,PC-3 prostate,> 100 µM
same,TGI,RPMI-8226 leukemia,> 100 µM
same,TGI,RXF 393 renal,> 100 µM
same,TGI,SF-268 CNS,> 100 µM
same,TGI,SF-295 CNS,> 100 µM
same,TGI,SF-539 CNS,> 100 µM
same,TGI,SK-MEL-2 melanoma,> 100 µM
same,TGI,SK-MEL-28 melanoma,> 100 µM
same,TGI,SK-MEL-5 melanoma,> 100 µM
same,TGI,SK-OV-3 ovarian,> 100 µM
same,TGI,SN12C renal,> 100 µM
same,TGI,SNB-19 CNS,> 100 µM
same,TGI,SNB-75 CNS,> 100 µM
same,TGI,SR leukemia,> 100 µM
same,TGI,SW-620 colon,> 100 µM
same,TGI,T-47D breast,> 100 µM
same,TGI,TK-10 renal,> 100 µM
same,TGI,U251 CNS,> 100 µM
same,TGI,UACC-257 melanoma,> 100 µM
same,TGI,UACC-62 melanoma,> 100 µM
same,TGI,UO-31 renal,> 100 µM
OC(CCN1CCN(CCOC(c2ccccc2)c2ccccc2)CC1)c1ccc(Br)cc1 (centres undefined),TGI,786-0 renal,22.8 µM
same,TGI,A498 renal,22 µM
same,TGI,A549 NSCLC,30.5 µM
same,TGI,ACHN renal,22.9 µM
same,TGI,BT-549 breast,26.1 µM
same,TGI,CAKI-1 renal,26.9 µM
same,TGI,CCRF-CEM leukemia,45.3 µM
same,TGI,COLO 205 colon,3.38 µM
same,TGI,DU-145 prostate,32.4 µM
same,TGI,EKVX NSCLC,23.5 µM
same,TGI,HCC-2998 colon,3.96 µM
same,TGI,HCT-116 colon,23.3 µM
same,TGI,HCT-15 colon,19.3 µM
same,TGI,HL-60(TB) leukemia,28.8 µM
same,TGI,HOP-62 NSCLC,32 µM
same,TGI,HOP-92 NSCLC,25.1 µM
same,TGI,HS 578T breast,42.8 µM
same,TGI,HT29 colon,16.5 µM
same,TGI,IGROV1 ovarian,24.7 µM
same,TGI,KM12 colon,36.9 µM
same,TGI,LOX IMVI melanoma,23.5 µM
same,TGI,M14 melanoma,11.2 µM
same,TGI,MALME-3M melanoma,24.4 µM
same,TGI,MCF7 breast,31.8 µM
same,TGI,MDA-MB-231 breast,25.3 µM
same,TGI,MDA-MB-435,27 µM
same,TGI,MDA-N,22.9 µM
same,TGI,NCI-H226 lung,37.6 µM
same,TGI,NCI-H23 lung,28 µM
same,TGI,NCI-H460 lung,26 µM
same,TGI,NCI-H522 lung,29.4 µM
same,TGI,NCI/ADR-RES ovarian,21.9 µM
same,TGI,OVCAR-3 ovarian,28 µM
same,TGI,OVCAR-4 ovarian,38.6 µM
same,TGI,OVCAR-5 ovarian,28.3 µM
same,TGI,OVCAR-8 ovarian,19.9 µM
same,TGI,PC-3 prostate,23 µM
same,TGI,RXF 393 renal,22.9 µM
same,TGI,SF-268 CNS,30.3 µM
same,TGI,SF-295 CNS,29.8 µM
same,TGI,SF-539 CNS,27.6 µM
same,TGI,SK-MEL-2 melanoma,25.6 µM
same,TGI,SK-MEL-28 melanoma,22.8 µM
same,TGI,SK-MEL-5 melanoma,12.6 µM
same,TGI,SK-OV-3 ovarian,27 µM
same,TGI,SN12C renal,25.2 µM
same,TGI,SNB-19 CNS,30.3 µM
same,TGI,SNB-75 CNS,27.5 µM
same,TGI,SW-620 colon,44.5 µM
same,TGI,T-47D breast,33.4 µM
same,TGI,TK-10 renal,26.9 µM
same,TGI,U251 CNS,25.1 µM
same,TGI,UACC-257 melanoma,12.6 µM
same,TGI,UACC-62 melanoma,22.8 µM
same,TGI,UO-31 renal,4.77 µM
